From patent US11672772B2, “Use of glycyrrhetinic acid, glycyrrhizic acid and related compounds for mitigation and/or treatment of pneumonitis/pneumonia/pulmonary fibrosis induced by virus infection and/or by chemical or biological agents” (priority 2020, dated 2023)

Key:
[1] = test system: Bleomycin (BLM) pneumonitis; assay: Bleomycin-induced pneumonitis in ICR mice (new inhalation method), left and right lung lobes; format: in vivo; settings: for pathology HE staining of lung: BLM-pneumonitis, GR/GA treatment vs NS; for lung sizes and lung index (lung wet weight/body weight), left and right side: inhaled 110 ul of 5 mg/ml BLM, oral GR 122 mg/kg/day or GA 67 mg/kg/day, three weeks, vs saline (NS)
Protocol: (§1) The subject invention provides an easy-perform mouse model with inhalation of 110-130 ul of liquid dissolved with various chemicals (e.g., anti-cancer drug or toxic paraquat) deep into whole lung to induce chemicals-pneumonitis. Compared with currently used intratracheal instillation, this new method is more quick (finished within 3 minutes) and non-invasion without surgically exposing the trachea. It delivers agents using a micropipette into the trachea at the back of the throat and allows the mouse to inhale into the lung with operator help for liquid deep-even distribution in the whole lung. This easy operation can quickly set-up for more than one hundred mice with chemicals-pneumonitis, providing enough mice for the screening or validating of various chemical or biological agents for anti-lung inflammation/infection to meet clinical needs.
(§2) A. After anesthesia, a rubber band was attached to the front teeth of the mice, and the mouse body was vertically upright. The tip of the tongue was pulled out with forceps, and 100-130 ul of liquid reagent was dripped into the upper part of the trachea at the back of the throat. The reagent was naturally inhaled into the mouse lung. […] Entire process was about one minute.
(§3) B. The mouse held firmly in the hands of the operator, moved up and down for 3-5 times to let the liquid moving deep into the lung, rotated around for 2-3 circles and repeated for 3 times to let the liquid evenly distributed in the lung. Entire process was about one minute.
Then, the mice were randomly divided into three groups (6 mice/group) and orally given different agents: 1) NS: vehicle of saline; 2) GR: 122 mg/kg/day of GR; 3) GA: 67 mg/kg/day of GA. Three weeks later, mice were sacrificed and the lung lobes of left and right sides were harvested separately.

BLM-pneumonitis = BLM-pneumonitis in C57BL/6 mice; format: in vivo; settings: for mitigation/treatment effect on the severity of BLM-pneumonitis: 3 week period, compared with Dexamethasone; for neutrophils % / lymphocytes % / number of lymphocytes: C57BL/6 mice with BLM-pneumonitis; for lymphocytes % / number of lymphocytes: vs saline-treated; for body weight / dose as low as which could reduce the severity of BLM-pneumonitis: C57BL/6 mice; for body weight: BLM, oral Dexamethasone 1, GR 70, GA 22 mg/kg/day, 2 weeks; for dose as low as which could reduce the severity of BLM-pneumonitis: oral
Protocol: as §1, §2, §3
C57BL/6 mice (8 weeks, male) were anesthetized and inhalated 110 ul of 5 mg/ml Bleomycin (BLM) to induce BLM-pneumonitis (new method in FIG. 2). Then, the mice were randomly divided into groups (7 mice/group) and orally given different agents: 1) Normal: as time control without any treatment; 2) NS: treated with saline as vehicle control (all agents in saline); 3) Dexamethasone: 1 mg/kg/day of Dexamethasone; 4) GR: at the indicated three different doses of GR; 5) GA: at the indicated three different doses of GA. Due to the severe BLM-pneumonitis, the inflammatory factors (such as MPO, IL 6 etc.) were released to cause acute reactions: dilation of alveolar capillaries, increased permeability, plasma exudation, blood cells entering the lung interstitium/alveoli, resulting in an increased wet weight of whole lung. The lung index was calculated as: whole lung wet weight/body weight. The higher of lung index, the severer of pneumonitis.
C57BL/6 mice (8 weeks, male) were anesthetized and inhalated 110 ul of 5 mg/ml Bleomycin (BLM) to induce BLM-pneumonitis (new method in FIG. 2). Then, the mice were randomly divided into four groups and orally given different agents: 1) NS: vehicle of saline; 2) Dexamethasone: 1 mg/kg/day of Dexamethasone; 3) GR: 70 mg/kg/day of GR; 4) GA: 22 mg/kg/day of GA. Due to the severe lung inflammation, the body weights of mice were lost during 2 weeks.

[2] = test system: various chemicals-induced pneumonitis (Bleomycin, Cisplatin, 5-Fluorouracil, Mitomycin, Methotrexate, paraquat); assay: Various chemicals-induced pneumonitis in ICR mice; format: in vivo; settings: for lung index (lung wet weight/body weight) / WBC number in blood: ICR mice, different time points; for lung index (lung wet weight/body weight): various inhaled chemicals, gavage of GR or GA; for WBC number in blood: gavage 122 mg/kg/day of GR or 67 mg/kg/day of GA within one hour; for number of neutrophils: pneumonitis induced by anticancer agents; for NLR (ratio of neutrophils to lymphocytes): various chemicals-induced pneumonitis; for lymphocytes %: various chemicals-induced pneumonitis incl. 5-FU, BLM and Cisplatin
[3] = test system: TGFβ and Collagen I expression in lung tissue; assay: Bleomycin-induced late lung damage, lung tissue q-PCR of pro-fibrosis molecules; format: in vivo, Mice; settings: 5 weeks after inhalation
Osimertinib-pneumonitis = format: in vivo, human; settings: GR 300 mg/day orally
Protocol: A patient with lung cancer was treated with Osimertinib (80 mg/day), targeting EGFR pathway. […] At this time point, GR (300 mg/day) was orally used and the extent of Osimertinib-pneumonitis was reduced after one month use of GR (FIG. 17 C). Six months after using GR, pneumonitis subsided while Osimertinib was continuously used to target EGFR pathway (FIG. 17 D).

H1N1 A/FM/1/47 = assay: H1N1-pneumonia (H1N1-flu model) in mice; format: in vivo, C57BL/6 mice
[4] = test system: IL6 and MPO expression in lung tissue; assay: Bleomycin+Paraquat-induced pneumonitis, lung tissue q-PCR of acute inflammation molecules; format: in vivo; settings: ICR mice, Bleomycin then paraquat 2 weeks later; sacrificed after 2 weeks
Protocol: ICR mice were inhalated with 130 ul of 5 mg/ml, and then 2 week later 0.1 mg/ml of paraquat with mitigation using GR or GA. After 2 weeks, mice were sacrificed and the lung tissue were examined with q-PCR for the expression of acute inflammation molecules, such as IL6 and MPO.

H22 liver cancer = assay: Tumor growth in ICR mice bearing H22 liver cancer; format: in vivo; settings: GA 40 mg/kg
Protocol: To determine if GR/GA are used for mitigation/treatment of anti-cancer drugs induced pneumonitis has any blocking effect on anticancer, the GA (40 mg/kg) was used in ICR mice bearing with aggressive H22 liver cancer.

H22 tumor = assay: H22 tumor-bearing mice treated with active immunotherapy (H22 vaccine) with GA; format: in vivo
Protocol: To determine if GA affects the anti-cancer immunotherapy, the H22 tumor-bearing mice were immunized with H22 vaccine, and GA (40 mg/kg) was used for anti-inflammation. The traditional Aspirin (60 mg/kg) was used as drug-control.

[5] = Pharmacokinetics (PK) after oral GR or GA, plasma LC-MS/MS; format: in vivo; settings: ICR mice, 400 mg/kg of GR or 224 mg/kg of GA (equal mole)
Protocol: After oral taken, it is converted into GA, an aglycone, fat soluble and easily absorbed through double lipid layer. Therefore, we propose that their pharmacokinetics (PK) should be different. […] 100 μl of plasma was added with 30 μl internal standard solution (100 ng/ml) and then 0.5 ml ethyl acetate. The mixture was vortex mixed for 3 min, centrifuged at 14 000×g for 15 min, and then removed 470 μl of supernatant to dry. After re-dissolved in 100 μl of acetonitrile-water (80[…]20, V/V, mobile phase agent), 20 μl was used for LC-MS/MS analysis.

| Molecule | pathology HE staining of lung [1] | lung sizes and lung index (lung wet weight/body weight), left and right side [1] | mitigation/treatment effect on the severity of BLM-pneumonitis (BLM-pneumonitis) | neutrophils % (BLM-pneumonitis) | lymphocytes % (BLM-pneumonitis) | number of lymphocytes (BLM-pneumonitis) | body weight (BLM-pneumonitis) | dose as low as which could reduce the severity of BLM-pneumonitis (BLM-pneumonitis) [mg/kg/day] | lung index (lung wet weight/body weight) [2] | WBC number in blood [2] | number of neutrophils [2] | NLR (ratio of neutrophils to lymphocytes) [2] | lymphocytes % [2] | Collagen I expression in lung tissue (q-PCR) [3] | TGFb expression in lung tissue (q-PCR) [3] | WBC number (H1N1 A/FM/1/47; day 12) | lymphocytes % (H1N1 A/FM/1/47; day 12) | further results |
| --- | --- | --- | --- | --- | --- | --- | --- | --- | --- | --- | --- | --- | --- | --- | --- | --- | --- | --- |
| CC1(C)[C@@H](O[C@H]2O[C@H](C(=O)O)[C@@H](O)[C@H](O)[C@H]2O[C@@H]2O[C@H](C(=O)O)[C@@H](O)[C@H](O)[C@H]2O)CC[C@]2(C)[C@H]3C(=O)C=C4[C@@H]5C[C@@](C)(C(=O)O)CC[C@]5(C)CC[C@@]4(C)[C@]3(C)CC[C@@H]12 [GR, glycyrrhizic acid] | less inflitration of inflammation cells and better lung structure | significantly reduced | better than Dexamethasone | greatly reduced | increased almost to the normal level | increased | helped mice to maintain their body weight | ≤ 40 | significantly reduced | reduced | reduced | reduce | increased | reduced | reduced | reduced WBC number greater than Ribavirin | significantly increased | extent of Osimertinib-pneumonitis (Osimertinib-pneumonitis; after one month): reduced; Osimertinib-pneumonitis (Osimertinib-pneumonitis; six months, Osimertinib continued): subsided; lymphocytes number (H1N1 A/FM/1/47; H1N1-pneumonia, vs NS): increased it in greater degree than Ribavirin; neutrophils % (H1N1 A/FM/1/47; H1N1-pneumonia, vs NS): reduced them in greater degree than Ribavirin; neutrophils number (H1N1 A/FM/1/47; H1N1-pneumonia, vs NS): reduced them in greater degree than Ribavirin; lung index (H1N1 A/FM/1/47; day 7, 2×LD50 virus, GR 70 mg/kg gavage once a day): acted like Ribavirin to reduce the lung index; lymphocytes % (H1N1 A/FM/1/47; day 7 of infection): slightly increased; IFNg level (H1N1 A/FM/1/47; day 12): much less than that in NS and Ribavirin group; MCP-1 level (H1N1 A/FM/1/47; day 12): reduces MCP-1 to a normal level; ratio of neutrophils to lymphocytes (NLR) (H1N1 A/FM/1/47; day 12): reduced; spleen index (H1N1 A/FM/1/47; day 12): reduced spleen index; lung index (H1N1 A/FM/1/47; day 12, 1×LD50 virus): still had a reduced lung index |
| glycyrrhetinic acid [GA] | less inflitration of inflammation cells and better lung structure | significantly reduced | better than Dexamethasone | greatly reduced | increased almost to the normal level | increased | helped mice to maintain their body weight | ≤ 22 | significantly reduced | reduced | reduced | reduce | increased | reduced | reduced | reduced WBC number greater than Ribavirin | significantly increased | IL6 expression in lung tissue (q-PCR) [4]: reduces; MPO expression in lung tissue (q-PCR) [4]: reduces; growth of tumor (H22 liver cancer): could reduce the growth of cancer in vivo; survival (H22 tumor; 80 day follow-up, tumor-bearing mice treated with H22 vaccine and GA): could prolong the survival time of mice; effect of combination use on the anti-tumor effect of H22 vaccine (H22 tumor; GA 40 mg/kg with H22 vaccine): not affected; Tmax [5]: 30 min |
